Biological target: T1, recombinant human CD39 (Homo sapiens, UniProt P49961)
T1 construct: purchased BPS Bioscience 71284 (enzyme); kit #79278
T1 sequence (P49961 1-510): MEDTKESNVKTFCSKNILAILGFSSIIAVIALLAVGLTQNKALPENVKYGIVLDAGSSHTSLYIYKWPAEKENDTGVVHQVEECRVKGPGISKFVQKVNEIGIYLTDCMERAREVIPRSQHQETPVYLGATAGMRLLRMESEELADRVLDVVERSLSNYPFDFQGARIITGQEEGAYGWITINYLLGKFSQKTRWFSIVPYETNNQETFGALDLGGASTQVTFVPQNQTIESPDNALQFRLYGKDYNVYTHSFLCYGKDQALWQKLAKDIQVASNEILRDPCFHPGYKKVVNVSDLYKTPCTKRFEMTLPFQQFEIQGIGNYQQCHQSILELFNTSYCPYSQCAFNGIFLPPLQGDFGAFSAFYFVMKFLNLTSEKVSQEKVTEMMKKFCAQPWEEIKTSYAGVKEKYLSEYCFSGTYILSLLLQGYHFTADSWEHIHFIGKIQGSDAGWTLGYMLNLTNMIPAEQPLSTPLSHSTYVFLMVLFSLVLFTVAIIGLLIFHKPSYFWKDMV
Experiment: CD39 in vitro enzymatic assay (ATP, colorimetric 630 nm);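 further: test compound preincubated 30 min with enzyme, then 30 min reaction with ATP at room temperature, absorbance after detection reagent, 100% activity without compound, 0% without enzyme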
Assay type: biochemical
Procedure: The CD39 enzymatic reactions were conducted in duplicate at room temperature for 30 minutes in a 50 μl mixture containing assay buffer, ATP, CD39 enzymes, and the test compound. Test compounds were preincubated with the enzyme for 30 minutes. Reactions were started by addition of the substrate. The 50 μl reactions were carried out in a 96-well transparent plate. After enzymatic reactions, 100 μl of Colorimetric Detection Reagent was added to the reaction mix. After a 15 minutes incubation, absorbance was measured using a Tecan plate reader at 630 nm.
Data Analysis: Enzyme activity assays were performed in duplicates at each concentration. The Absorbance intensity data were analyzed and compared. In the absence of the compound, the intensity in each data set was defined as 100% (Ce) activity. In the absence of enzyme, the intensity in each data set was defined as 0% (C0) activity.

## POM-1
0.001 μM, TABLE 79
  Activity (%) Rep. 1: 79%
  Activity (%) Rep. 2: 78%
  CD39 Inhibition (%): 21%
  Net absorbance Rep. 1: 0.42
  Net absorbance Rep. 2: 0.41
0.001 μM, TABLE 80
  Activity (%) Rep. 1: 99%
  Activity (%) Rep. 2: 90%
  Inhibition (%): 5%
  Net absorbance Rep. 1: 0.281
  Net absorbance Rep. 2: 0.254
0.001 μM, TABLE 81
  Activity (%) Rep. 1: 96%
  Activity (%) Rep. 2: 92%
  Inhibition (%): 6%
  Net absorbance Rep. 1: 0.51
  Net absorbance Rep. 2: 0.49
0.001 μM, TABLE 83
  Activity (%) Rep. 1: 86%
  Activity (%) Rep. 2: 89%
  Inhibition (%): 13%
  Net absorbance Rep. 1: 0.25
  Net absorbance Rep. 2: 0.26
0.001 μM, TABLE 85
  Activity (%) Repeat 1: 85%
  Activity (%) Repeat 2: 89%
  Inhibition (%): 13%
  Net Signal (Absorbance) Repeat 1: 0.27
  Net Signal (Absorbance) Repeat 2: 0.29
0.01 μM, TABLE 79
  Activity (%) Rep. 1: 49%
  Activity (%) Rep. 2: 56%
  CD39 Inhibition (%): 47%
  Net absorbance Rep. 1: 0.26
  Net absorbance Rep. 2: 0.30
0.01 μM, TABLE 80
  Activity (%) Rep. 1: 54%
  Activity (%) Rep. 2: 51%
  Inhibition (%): 47%
  Net absorbance Rep. 1: 0.154
  Net absorbance Rep. 2: 0.145
0.01 μM, TABLE 81
  Activity (%) Rep. 1: 36%
  Activity (%) Rep. 2: 37%
  Inhibition (%): 64%
  Net absorbance Rep. 1: 0.19
  Net absorbance Rep. 2: 0.20
0.01 μM, TABLE 83
  Activity (%) Rep. 1: 67%
  Activity (%) Rep. 2: 66%
  Inhibition (%): 33%
  Net absorbance Rep. 1: 0.20
  Net absorbance Rep. 2: 0.19
0.01 μM, TABLE 85
  Activity (%) Repeat 1: 65%
  Activity (%) Repeat 2: 68%
  Inhibition (%): 34%
  Net Signal (Absorbance) Repeat 1: 0.21
  Net Signal (Absorbance) Repeat 2: 0.22
0.1 μM, TABLE 79
  Activity (%) Rep. 1: 14%
  Activity (%) Rep. 2: 19%
  CD39 Inhibition (%): 84%
  Net absorbance Rep. 1: 0.08
  Net absorbance Rep. 2: 0.10
0.1 μM, TABLE 80
  Activity (%) Rep. 1: 26%
  Activity (%) Rep. 2: 26%
  Inhibition (%): 74%
  Net absorbance Rep. 1: 0.073
  Net absorbance Rep. 2: 0.073
0.1 μM, TABLE 81
  Activity (%) Rep. 1: 16%
  Activity (%) Rep. 2: 10%
  Inhibition (%): 87%
  Net absorbance Rep. 1: 0.08
  Net absorbance Rep. 2: 0.06
0.1 μM, TABLE 83
  Activity (%) Rep. 1: 30%
  Activity (%) Rep. 2: 29%
  Inhibition (%): 70%
  Net absorbance Rep. 1: 0.09
  Net absorbance Rep. 2: 0.09
0.1 μM, TABLE 85
  Activity (%) Repeat 1: 39%
  Activity (%) Repeat 2: 38%
  Inhibition (%): 61%
  Net Signal (Absorbance) Repeat 1: 0.13
  Net Signal (Absorbance) Repeat 2: 0.13
